Results taken from ChEMBL document CHEMBL3885861, “Open TG-GATES”.

Organism: Rattus norvegicus
Assay: Open TG-GATES - Regimen: Single
Format: toxicity, organism-based, Sprague-Dawley
Design: regimen Single, gender Male, age 6 weeks
Conditions: in vivo, po, route gavage; for gamma-GTP / ALP / AST / BUN / CRE / Ca / DBIL / GLC / IP / K / LDH / Na / PL / RALB / TBIL / TC / TG / TP / ALT: tissue Plasma; for APTT / Bas / Eos / Fbg / Hb / Ht / MCH / MCHC / MCV / Mono / Neu / PT / Plat / RBC / Ret / WBC / Lym: tissue Blood; for KIDNEY_L / KIDNEY_R / KIDNEY_TOTAL: tissue Kidney; for LIVER: tissue Liver
[1] = 300 mg/kg, 3 h, dose level Middle
[2] = 300 mg/kg, 6 h, dose level Middle
[3] = 300 mg/kg, 9 h, dose level Middle
[4] = 300 mg/kg, 24 h, dose level Middle
[5] = 1000 mg/kg, 3 h, dose level High
[6] = 1000 mg/kg, 6 h, dose level High
[7] = 1000 mg/kg, 9 h, dose level High
[8] = 1000 mg/kg, 24 h, dose level High

O=C(O)c1cn(C2CC2)c2cc(N3CCNCC3)c(F)cc2c1=O [CIPROFLOXACIN]
gamma-GTP (100 mg/kg, 24 h, dose level Low): 1.4 IU/L | TERMINAL_BW [1]: 184.9 g | APTT [1]: 16.7 s | Bas [1]: 0% | Eos [1]: 0.4% | Fbg [1]: 204.6 mg/dL | Hb [1]: 13.2 g/dL | Ht [1]: 39.5% | MCH [1]: 22.8 pg | MCHC [1]: 33.4% | MCV [1]: 68.2 fL | Mono [1]: 6% | Neu [1]: 14.2% | PT [1]: 12.4 s | Plat [1]: 99.2 x10_4/uL | RBC [1]: 579 x10_4/ul | Ret [1]: 11.6% | WBC [1]: 102.6 x10_2/uL | KIDNEY_L [1]: 0.8 g | KIDNEY_R [1]: 0.9 g | KIDNEY_TOTAL [1]: 1.7 g | LIVER [1]: 9 g | ALP [1]: 905.6 IU/L | AST [1]: 68.2 IU/L | BUN [1]: 11.6 mg/dL | CRE [1]: 0.5 mg/dL | Ca [1]: 11 mg/dL | DBIL [1]: 0.006 mg/dL | GLC [1]: 183.6 mg/dL | IP [1]: 9.9 mg/dL | K [1]: 4.7 meq/L | LDH [1]: 78.6 IU/L | Na [1]: 138.8 meq/L | PL [1]: 145.6 mg/dL | RALB [1]: 3.9 g/dL | TBIL [1]: 0.4 mg/dL | TC [1]: 84 mg/dL | TG [1]: 43.6 mg/dL | TP [1]: 5.5 g/dL | gamma-GTP [1]: 1 IU/L | TERMINAL_BW [2]: 179.8 g | Bas [2]: 0% | Eos [2]: 1% | Fbg [2]: 208.2 mg/dL | Hb [2]: 12.8 g/dL | MCH [2]: 22.1 pg | MCHC [2]: 33% | MCV [2]: 67.1 fL | Mono [2]: 8% | PT [2]: 12.4 s | Plat [2]: 101.5 x10_4/uL | RBC [2]: 579.8 x10_4/ul | Ret [2]: 10.5% | WBC [2]: 103.6 x10_2/uL | KIDNEY_L [2]: 0.9 g | KIDNEY_R [2]: 0.8 g | KIDNEY_TOTAL [2]: 1.7 g | LIVER [2]: 8.1 g | ALP [2]: 804.2 IU/L | ALT [2]: 35.2 IU/L | BUN [2]: 11 mg/dL | CRE [2]: 0.5 mg/dL | Ca [2]: 11.6 mg/dL | DBIL [2]: 0.038 mg/dL | GLC [2]: 175.2 mg/dL | IP [2]: 10.3 mg/dL | K [2]: 5.1 meq/L | LDH [2]: 82.2 IU/L | Na [2]: 138 meq/L | PL [2]: 131.8 mg/dL | RALB [2]: 3.8 g/dL | TBIL [2]: 0.4 mg/dL | TC [2]: 82.2 mg/dL | TG [2]: 36.2 mg/dL | TP [2]: 5.6 g/dL | gamma-GTP [2]: 1.4 IU/L | TERMINAL_BW [3]: 176.2 g | APTT [3]: 16.9 s | Bas [3]: 0% | Eos [3]: 0.8% | Fbg [3]: 220.4 mg/dL | Hb [3]: 13.2 g/dL | Ht [3]: 39.7% | Lym [3]: 81% | MCV [3]: 67.5 fL | Mono [3]: 5.2% | Neu [3]: 13.4% | PT [3]: 11.5 s | Plat [3]: 101.9 x10_4/uL | RBC [3]: 588.6 x10_4/ul | Ret [3]: 9.9% | WBC [3]: 105.6 x10_2/uL | KIDNEY_L [3]: 0.8 g | KIDNEY_R [3]: 0.8 g | KIDNEY_TOTAL [3]: 1.7 g | LIVER [3]: 7.2 g | ALP [3]: 927.2 IU/L | ALT [3]: 33 IU/L | AST [3]: 67.4 IU/L | BUN [3]: 10.2 mg/dL | CRE [3]: 0.5 mg/dL | DBIL [3]: 0.082 mg/dL | GLC [3]: 191.4 mg/dL | IP [3]: 10.9 mg/dL | K [3]: 5 meq/L | LDH [3]: 79.8 IU/L | Na [3]: 139.2 meq/L | PL [3]: 120.4 mg/dL | RALB [3]: 3.9 g/dL | TBIL [3]: 0.3 mg/dL | TC [3]: 72.8 mg/dL | TP [3]: 5.6 g/dL | gamma-GTP [3]: 1.4 IU/L | TERMINAL_BW [4]: 194.3 g | Bas [4]: 0% | Eos [4]: 1% | Fbg [4]: 214.4 mg/dL | Hb [4]: 12.9 g/dL | Lym [4]: 77.2% | MCH [4]: 21.4 pg | MCHC [4]: 33.1% | MCV [4]: 64.8 fL | Mono [4]: 7% | PT [4]: 12.4 s | Plat [4]: 106.2 x10_4/uL | RBC [4]: 600.4 x10_4/ul | Ret [4]: 9.4% | WBC [4]: 96.1 x10_2/uL | KIDNEY_L [4]: 0.9 g | KIDNEY_R [4]: 0.9 g | KIDNEY_TOTAL [4]: 1.8 g | LIVER [4]: 8.5 g | ALP [4]: 843 IU/L | ALT [4]: 37.8 IU/L | AST [4]: 71.8 IU/L | BUN [4]: 17.6 mg/dL | CRE [4]: 0.5 mg/dL | Ca [4]: 11.3 mg/dL | DBIL [4]: 0.058 mg/dL | GLC [4]: 193 mg/dL | IP [4]: 9.2 mg/dL | K [4]: 4.7 meq/L | LDH [4]: 93.4 IU/L | Na [4]: 140.2 meq/L | PL [4]: 153.2 mg/dL | RALB [4]: 3.9 g/dL | TBIL [4]: 0.3 mg/dL | TC [4]: 95.4 mg/dL | TG [4]: 49 mg/dL | TP [4]: 5.9 g/dL | gamma-GTP [4]: 1.8 IU/L | TERMINAL_BW [5]: 182 g | APTT [5]: 17 s | Bas [5]: 0% | Eos [5]: 0.4% | Fbg [5]: 215.6 mg/dL | Hb [5]: 12.9 g/dL | Lym [5]: 80.4% | MCH [5]: 21.7 pg | MCHC [5]: 33.1% | MCV [5]: 65.5 fL | Mono [5]: 6.6% | Neu [5]: 12.6% | PT [5]: 12.6 s | Plat [5]: 101.8 x10_4/uL | RBC [5]: 592.8 x10_4/ul | Ret [5]: 11.2% | WBC [5]: 101.3 x10_2/uL | KIDNEY_L [5]: 0.8 g | KIDNEY_R [5]: 0.8 g | KIDNEY_TOTAL [5]: 1.7 g | LIVER [5]: 8.6 g | ALP [5]: 791 IU/L | ALT [5]: 36.8 IU/L | CRE [5]: 0.5 mg/dL | DBIL [5]: 0.022 mg/dL | GLC [5]: 191.2 mg/dL | IP [5]: 10.3 mg/dL | K [5]: 4.7 meq/L | LDH [5]: 132.2 IU/L | Na [5]: 139 meq/L | PL [5]: 141 mg/dL | RALB [5]: 3.8 g/dL | TBIL [5]: 0.3 mg/dL | TC [5]: 81.2 mg/dL | TG [5]: 47 mg/dL | TP [5]: 5.6 g/dL | gamma-GTP [5]: 1.4 IU/L | TERMINAL_BW [6]: 179.7 g | Bas [6]: 0% | Eos [6]: 0.8% | Fbg [6]: 210.4 mg/dL | Hb [6]: 12.9 g/dL | Ht [6]: 39.1% | Lym [6]: 78.2% | MCHC [6]: 32.9% | MCV [6]: 67.5 fL | Mono [6]: 7.6% | Neu [6]: 13.8% | PT [6]: 12.5 s | Plat [6]: 100.8 x10_4/uL | RBC [6]: 579.8 x10_4/ul | Ret [6]: 10% | WBC [6]: 97.6 x10_2/uL | KIDNEY_L [6]: 0.8 g | KIDNEY_R [6]: 0.8 g | KIDNEY_TOTAL [6]: 1.7 g | LIVER [6]: 7.9 g | ALP [6]: 904.2 IU/L | AST [6]: 69.4 IU/L | BUN [6]: 10 mg/dL | CRE [6]: 0.5 mg/dL | Ca [6]: 11.4 mg/dL | DBIL [6]: 0.052 mg/dL | GLC [6]: 185.8 mg/dL | IP [6]: 10.8 mg/dL | K [6]: 5.3 meq/L | LDH [6]: 140.4 IU/L | Na [6]: 138 meq/L | PL [6]: 137.2 mg/dL | RALB [6]: 3.7 g/dL | TBIL [6]: 0.3 mg/dL | TC [6]: 79.8 mg/dL | TP [6]: 5.5 g/dL | gamma-GTP [6]: 1 IU/L | TERMINAL_BW [7]: 176.2 g | APTT [7]: 16.9 s | Bas [7]: 0% | Eos [7]: 0.8% | Fbg [7]: 223 mg/dL | Hb [7]: 13.2 g/dL | Ht [7]: 39.9% | Lym [7]: 83.6% | MCH [7]: 22 pg | MCHC [7]: 33% | MCV [7]: 66.5 fL | Mono [7]: 5.8% | Neu [7]: 10% | PT [7]: 11.4 s | Plat [7]: 104.6 x10_4/uL | RBC [7]: 601 x10_4/ul | WBC [7]: 94.6 x10_2/uL | KIDNEY_L [7]: 0.8 g | KIDNEY_R [7]: 0.9 g | KIDNEY_TOTAL [7]: 1.7 g | LIVER [7]: 7.3 g | ALP [7]: 763.8 IU/L | AST [7]: 71.4 IU/L | BUN [7]: 11 mg/dL | CRE [7]: 0.5 mg/dL | Ca [7]: 10.8 mg/dL | DBIL [7]: 0.08 mg/dL | GLC [7]: 192.4 mg/dL | IP [7]: 11 mg/dL | K [7]: 5.2 meq/L | LDH [7]: 168.2 IU/L | Na [7]: 139 meq/L | PL [7]: 131.4 mg/dL | RALB [7]: 3.8 g/dL | TBIL [7]: 0.3 mg/dL | TC [7]: 78 mg/dL | TG [7]: 22.2 mg/dL | TP [7]: 5.6 g/dL | gamma-GTP [7]: 1.4 IU/L | TERMINAL_BW [8]: 193.6 g | APTT [8]: 15.4 s | Bas [8]: 0% | Eos [8]: 0.8% | Fbg [8]: 219.4 mg/dL | Hb [8]: 13.5 g/dL | Ht [8]: 40.1% | Lym [8]: 80% | MCHC [8]: 33.6% | Mono [8]: 6.4% | Neu [8]: 12.6% | PT [8]: 12.4 s | Plat [8]: 106.5 x10_4/uL | RBC [8]: 600.2 x10_4/ul | Ret [8]: 9.1% | WBC [8]: 110.9 x10_2/uL | KIDNEY_L [8]: 0.8 g | KIDNEY_R [8]: 0.9 g | KIDNEY_TOTAL [8]: 1.7 g | LIVER [8]: 8.7 g | ALP [8]: 1158.6 IU/L | ALT [8]: 49 IU/L | BUN [8]: 19.2 mg/dL | CRE [8]: 0.5 mg/dL | Ca [8]: 11.3 mg/dL | DBIL [8]: 0.028 mg/dL | GLC [8]: 183.8 mg/dL | IP [8]: 9.9 mg/dL | K [8]: 4.6 meq/L | LDH [8]: 177.2 IU/L | Na [8]: 140 meq/L | PL [8]: 146.4 mg/dL | RALB [8]: 4 g/dL | TBIL [8]: 0.2 mg/dL | TC [8]: 84 mg/dL | TG [8]: 51.2 mg/dL | TP [8]: 6 g/dL | gamma-GTP [8]: 1.2 IU/L
